Results on 41 compounds are retold here after patent publication US9902728B2, “Pyrrolo and pyrazolopyrimidines as ubiquitin-specific protease 7 inhibitors” (Forma Therapeutics, Inc., priority 2014, dated 2018).

Each structure is given as a SMILES string. pIC50: −log10 of the molar value. Some results are limits rather than exact numbers.

T1 sequence (Q93009 208-1102): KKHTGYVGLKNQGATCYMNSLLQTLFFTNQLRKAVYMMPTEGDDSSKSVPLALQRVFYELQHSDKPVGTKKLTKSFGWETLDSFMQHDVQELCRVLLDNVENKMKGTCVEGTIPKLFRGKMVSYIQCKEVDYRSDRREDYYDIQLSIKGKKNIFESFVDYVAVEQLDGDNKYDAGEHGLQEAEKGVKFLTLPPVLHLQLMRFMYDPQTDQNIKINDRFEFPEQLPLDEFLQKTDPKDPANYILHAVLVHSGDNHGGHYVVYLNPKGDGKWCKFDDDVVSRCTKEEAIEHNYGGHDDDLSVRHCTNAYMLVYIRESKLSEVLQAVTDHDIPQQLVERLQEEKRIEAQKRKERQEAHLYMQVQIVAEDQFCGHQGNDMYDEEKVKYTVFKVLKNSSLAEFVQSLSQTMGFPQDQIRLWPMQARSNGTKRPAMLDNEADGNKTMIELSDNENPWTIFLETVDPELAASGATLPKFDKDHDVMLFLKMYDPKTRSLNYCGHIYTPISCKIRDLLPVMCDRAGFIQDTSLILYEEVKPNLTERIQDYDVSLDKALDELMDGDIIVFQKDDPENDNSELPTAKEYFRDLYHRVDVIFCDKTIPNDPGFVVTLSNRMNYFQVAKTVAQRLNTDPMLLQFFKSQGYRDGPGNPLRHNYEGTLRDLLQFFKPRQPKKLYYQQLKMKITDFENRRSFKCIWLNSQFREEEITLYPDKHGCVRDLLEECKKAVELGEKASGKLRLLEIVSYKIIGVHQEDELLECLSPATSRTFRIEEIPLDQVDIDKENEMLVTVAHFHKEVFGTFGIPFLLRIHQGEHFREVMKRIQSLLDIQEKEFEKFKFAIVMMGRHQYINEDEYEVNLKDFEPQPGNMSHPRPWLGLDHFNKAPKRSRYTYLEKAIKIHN

The first test addresses T1, USP7 (Homo sapiens, UniProt Q93009).
T1 construct: USP7, construct USP7 (208-1102) 6*His, Viva Biotech; 6xHis (C); purchased Viva Biotech
Nature of the test: USP7 Assay A (Ubitquin-Rhodamine 110 Assay). The conditions noted are these: USP7 activity in USP7 assay A and B (table does not say which assay per compound); read-out: USP7_IC50. It counts as biochemical. The procedure, abridged:
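Enzyme and compound sat together for 30 min before Ub-Rh110 was added, in buffer of 20 mM Tris-HCl (pH 8.0), 1 mM GSH, 0.03% BGG and 0.01% Triton X-100.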
With `O=C(C1CC1)N1CCC(O)(Cn2cnc3c(cnn3-c3ccc(-n4cc(OCCO)cn4)cc3)c2=O)CC1` [Compound I-977], the pIC50 was 5.00 to 6.00.
With `O=C(c1cnc(C2CC2)o1)N1CCC(O)(Cn2cnc3c(cnn3-c3ccc(OCC4(F)CCC4)cc3)c2=O)CC1` [Compound I-981], the pIC50 is greater than 6.70.
In the case of `Cc1nc(-c2ccc(-n3ncc4c(=O)n(CC5(O)CCN(C(=O)c6ccc(F)cc6)CC5)cnc43)cc2)c[nH]1` [Compound I-983], the pIC50 is 5.00 to 6.00.
On to `Cc1cnc(-c2ccc(-n3ncc4c(=O)n(CC5(O)CCN(C(=O)c6ccc(F)cc6)CC5)cnc43)cc2)n1C` [Compound I-984], for which the pIC50 is 5.00 to 6.00.
Take `O=C(c1cnc(C2CC2)o1)N1CCC(O)(Cn2cnc3c(cnn3-c3ccc(-c4cccnc4)cc3)c2=O)CC1` [Compound I-985]: the pIC50 was 6.00 to 6.70.
With `Cc1cn(-c2ccc(-n3ncc4c(=O)n(CC5(O)CCN(C(=O)c6ccc(F)cc6)CC5)cnc43)cc2)cn1` [Compound I-987], the pIC50 was 5.00 to 6.00.
For the compound `Cc1nccn1-c1ccc(-n2ncc3c(=O)n(CC4(O)CCN(C(=O)c5ccc(F)cc5)CC4)cnc32)cc1` [Compound I-988], the pIC50 is 5.00 to 6.00.
Same read-out and setting: the result for `CN1Cc2cnn(-c3ccc(C(=O)N4CCC(O)(Cn5cnc6c(cnn6-c6ccc(F)cc6)c5=O)CC4)cc3)c2C1` [Compound I-1000] reads 5.00 to 6.00; that for `CN1Cc2cn(-c3ccc(C(=O)N4CCC(O)(Cn5cnc6c(cnn6-c6ccc(F)cc6)c5=O)CC4)cc3)nc2C1` [Compound I-1001], 5.00 to 6.00; that for `NC(=O)Cn1cc(-c2ccc(C(=O)N3CCC(O)(Cn4cnc5c(cnn5-c5ccc(F)cc5)c4=O)CC3)cc2)cn1` [Compound I-1002, 2-(4-(4-(4-((1-(4-fluorophenyl)-4-oxo-1H-pyrazolo[3,4-d]pyrimidin-5(4H)-yl)methyl)-4-hydroxypiperidine-1-carbonyl)phenyl)-1H-pyrazol-1-yl)acetamide], 5.00 to 6.00.
Turning to `C=CC(=O)N1[C@@H](C(=O)N2CCC(O)(Cn3cnc4c(cnn4-c4ccc(F)cc4)c3=O)CC2)C[C@@H]1C` [Compound I-1003], the pIC50 was 5.00 to 6.00.
On the same count and under the same terms, for `O=C(c1ccc(N2CC3CC2CN3)cc1)N1CCC(O)(Cn2cnc3c(cnn3-c3ccc(F)cc3)c2=O)CC1` (centres unmarked) [Compound I-1005] the value was 5.00 to 6.00.
The same measure, in the same setting: the result for `O=C(c1ccc(-c2cnn(CCO)c2)cc1)N1CCC(O)(Cn2cnc3c(cnn3-c3ccc(F)cc3)c2=O)CC1` [Compound I-1006] reads 5.00 to 6.00.
Regarding `O=C(C1CC1)N1CCC(O)(Cn2cnc3c(ccn3-c3cccc(CN4CCCCC4)c3)c2=O)CC1` [Compound I-1009], the pIC50 was 5.00 to 6.00.
In the case of `O=C(C1CC1)N1CCC(O)(Cn2cnc3c(ccn3-c3ccc(F)c(CN4CCCCC4)c3)c2=O)CC1` [Compound I-1010], the pIC50 is 5.00 to 6.00.
As to `N#Cc1ccc(OC2CCC(C(=O)N3CCC(O)(Cn4cnc5c(cnn5-c5ccc(F)cc5)c4=O)CC3)CC2)nc1` (centres unmarked) [Compound I-1014], the pIC50 is 6.00 to 6.70.
For the compound `Cc1cncc(OC2CCC(C(=O)N3CCC(O)(Cn4cnc5c(cnn5-c5ccc(F)cc5)c4=O)CC3)CC2)n1` (centres unmarked) [Compound I-1015], the pIC50 is 6.00 to 6.70.
With `Cc1nccc(OC2CCC(C(=O)N3CCC(O)(Cn4cnc5c(cnn5-c5ccc(F)cc5)c4=O)CC3)CC2)n1` (centres unmarked) [Compound I-1016], the pIC50 is 6.00 to 6.70.
With `O=C(C1CCC(Oc2cccnc2F)CC1)N1CCC(O)(Cn2cnc3c(cnn3-c3ccccc3)c2=O)CC1` (centres unmarked) [Compound I-1017], the pIC50 is 6.00 to 6.70.
The same measure, in the same setting: for `O=C(C1CCC(Oc2cccc(N3CCC3)n2)CC1)N1CCC(O)(Cn2cnc3c(cnn3-c3ccc(F)cc3)c2=O)CC1` (centres unmarked) [Compound I-1018] the value was greater than 6.70; for `COc1ccc(OC2CCC(C(=O)N3CCC(O)(Cn4cnc5c(cnn5-c5ccc(F)cc5)c4=O)CC3)CC2)nc1` (centres unmarked) [Compound I-1019], 6.00 to 6.70; for `COc1ccc(OC2CCC(C(=O)N3CCC(O)(Cn4cnc5c(cnn5-c5ccccc5)c4=O)CC3)CC2)nc1` (centres unmarked) [Compound I-1020], 6.00 to 6.70.
Still for that read-out and setting: the result for `O=C(C1CCC(Oc2cnccn2)CC1)N1CCC(O)(Cn2cnc3c(cnn3-c3ccc(F)cc3)c2=O)CC1` (centres unmarked) [Compound I-1021] reads 6.00 to 6.70; that for `Cc1ncc(OC2CCC(C(=O)N3CCC(O)(Cn4cnc5c(cnn5-c5ccc(F)cc5)c4=O)CC3)CC2)cn1` (centres unmarked) [Compound I-1022], 6.00 to 6.70.
Same read-out and setting: the result for `O=C(C1CCC(Nc2cccc(F)n2)CC1)N1CCC(O)(Cn2cnc3c(cnn3-c3ccc(F)cc3)c2=O)CC1` (centres unmarked) [Compound I-1023] reads greater than 6.70; that for `O=C(C1CCC(Nc2cccc(F)n2)CC1)N1CCC(O)(Cn2cnc3c(cnn3-c3ccc(F)cc3)c2=O)CC1` (centres unmarked) [Compound I-1024], greater than 6.70; that for `CC(c1ccccc1)c1nn(C)cc1C(=O)N1CCC(O)(Cn2cnc3c(cnn3-c3ccc(F)cc3)c2=O)CC1` (centres unmarked) [Compound I-1025], 6.00 to 6.70.
For the compound `C[C@H](CC(=O)N1CCC(O)(Cn2cnc3c(cnn3-c3ccc(F)cc3)c2=O)CC1)n1ccc(F)n1` [Compound I-1028], the pIC50 was greater than 6.70.
The same measure, in the same setting: the result for `C[C@@H](CC(=O)N1CCC(O)(Cn2cnc3c(cnn3-c3ccc(F)cc3)c2=O)CC1)n1ccc(F)n1` [Compound I-1029] reads 5.00 to 6.00.
As for `O=C(C1CC(Nc2cccnc2)C1)N1CCC(O)(Cn2cnc3c(cnn3-c3ccc(F)cc3)c2=O)CC1` (centres unmarked) [Compound I-1030], the pIC50 was 6.00 to 6.70.
The same measure, in the same setting: the result for `O=C(C1CC(Nc2cccnc2)C1)N1CCC(O)(Cn2cnc3c(cnn3-c3ccc(F)cc3)c2=O)CC1` (centres unmarked) [Compound I-1031] reads 6.00 to 6.70.
The same measure, in the same setting: the result for `O=C(C1CC(Nc2ccc(F)cn2)C1)N1CCC(O)(Cn2cnc3c(cnn3-c3ccc(F)cc3)c2=O)CC1` (centres unmarked) [Compound I-1032] reads 6.00 to 6.70; that for `O=C(C1CC(Nc2ccc(F)cn2)C1)N1CCC(O)(Cn2cnc3c(cnn3-c3ccc(F)cc3)c2=O)CC1` (centres unmarked) [Compound I-1033], 5.00 to 6.00.
As for `O=C(C1CC(Nc2ccccn2)C1)N1CCC(O)(Cn2cnc3c(cnn3-c3ccc(F)cc3)c2=O)CC1` (centres unmarked) [Compound I-1034], the pIC50 is 5.00 to 6.00.
On the same count and under the same terms, the result for `O=C(C1CC(Nc2ccccn2)C1)N1CCC(O)(Cn2cnc3c(cnn3-c3ccc(F)cc3)c2=O)CC1` (centres unmarked) [Compound I-1035] reads 6.00 to 6.70; that for `O=C(C[C@H](C(F)F)n1ccc(F)n1)N1CCC(O)(Cn2cnc3c(cnn3-c3ccc(C(F)(F)F)cc3)c2=O)CC1` [Compound I-1036], greater than 6.70; that for `O=C(C[C@@H](C(F)F)n1ccc(F)n1)N1CCC(O)(Cn2cnc3c(cnn3-c3ccc(C(F)(F)F)cc3)c2=O)CC1` [Compound I-1037], 5.00 to 6.00.

The test is the same for the next values; noted with them: USP7 assay A and B (table does not say which assay per compound); read-out: USP7_IC50.
`O=C(c1ccc(OC(F)F)cc1)N1CCC(O)(Cn2cnc3c(cnn3-c3cccc(CO)c3)c2=O)CC1` [Compound I-989]: the pIC50 is 5.00 to 6.00.
As to `CC(C)N1CCC(c2ccc(-n3ncc4c(=O)n(CC5(O)CCN(C(=O)N(C)C)CC5)cnc43)cc2)CC1` [Compound I-992], the pIC50 is 5.00 to 6.00.
As for `O=C(c1ccc(F)cc1)N1CCC(O)(Cn2cnc3c(cnn3-c3cccc(C4CCNCC4)c3)c2=O)CC1` [Compound I-993], the pIC50 is 5.00 to 6.00.
Turning to `CN1CCCCC1CCc1ccc(-n2ncc3c(=O)n(CC4(O)CCN(C(=O)c5ccc(F)cc5)CC4)cnc32)cc1` (centres unmarked) [Compound I-1007, 5-((1-(4-fluorobenzoyl)-4-hydroxypiperidin-4-yl)methyl)-1-(4-(2-(1-methylpiperidin-2-yl)ethyl)phenyl)-1H-pyrazolo[3,4-d]pyrimidin-4(5H)-one], the pIC50 is 5.00 to 6.00.
